Our source for the IC50 values is BindingDB's records for patent US20250034169 (Sunshine Lake Pharma Co., 2025).

Assay [1] deals with GTPase KRas [G12D]/RAF proto-oncogene serine/threonine-protein kinase (Homo sapiens, UniProt P01116+P04049, G12D). Briefly: KRAS G12D/cRAF Binding Assay. How it is done: (§1) (1) Compound was prepared with DMSO, and diluted by 3-fold gradient with DMSO.(2) 0.1 μl of serial dilutions of the compound was added to a 384-well plate.(3) 5 μl of Tag2-KRASG12D>P at a specific concentration was added to the 384-well plate, and the plate was centrifuged at 1000 rpm for 1 min.(4) Then 5 μl of Tag1-cRAF at a specific concentration was added to the 384-well plate, and the plate was centrifuged at 1000 rpm for 1 min.(5) The plate was incubated at 25° C. for 15 min.(6) 10 μl of the mixture of anti-Tag1-Tb3+ and anti-Tag2-XL665 was added to the 384-well plate.(7) The plate was centrifuged at 1000 rpm for 1 min and incubated at 4° C. for 3 h.(8) The 665/615 nm ratio was read by a microplate reader.(9) Data analysis: The log value of the compound concentration was taken as the abscissa, and the 665/615 nm ratio was used as the ordinate, the data were analyzed by GraphPad Prism 8.0 software.

Assay [2] deals with GTPase KRas (G12D) and Son of Sevenless Homolog 1 (SOS) (Homo sapiens, UniProt P01116+Q07889, G12D). Description: KRAS G12D/SOS1 Binding Assay. How it is done: as §1, with “Tag1-SOS1” for “Tag1-cRAF”

In the case of `C#Cc1c(F)ccc2cc(O)cc(-c3nc(OCCC(F)(F)F)c4c(N5CC6CCC(C6)C5)nc(OC[C@@]56CCCN5C[C@H](F)C6)nc4c3F)c12` [US20250034169, Compound 9], the IC50 in assay [1] came to 8.8 nM; in assay [2] it was 12.6 nM.

Regarding `C#Cc1c(F)ccc2cc(O)cc(-c3nc(OCCOC)c4c(N5CC6CCC(C6)C5)nc(OC[C@@]56CCCN5C[C@H](F)C6)nc4c3F)c12` [US20250034169, Compound 10], the IC50 in assay [1] was found to be 8.7 nM; in assay [2] it was 13.9 nM.

Take `[2H]C([2H])([2H])c1nc(-c2cc(O)cc3ccc(F)c(C#C)c23)c(F)c2nc(OC[C@@]34CCCN3C[C@H](F)C4)nc(N3CC4CCC(C4)C3)c12` [US20250034169, Compound 11]: the IC50 is 9.2 nM in assay [1] and 19.8 nM in assay [2].

For the compound `C#Cc1c(F)ccc2cc(O)cc(-c3nc(OCC)c4c(N5CC6CCC(C6)C5)nc(OC[C@@]56CCCN5C[C@H](F)C6)nc4c3F)c12` [US20250034169, Compound 12], the IC50 in assay [1] was found to be 9.7 nM; in assay [2], 10.3 nM.

On to `C#Cc1c(F)ccc2cc(O)cc(-c3nc(C(=O)OCC)c4c(N5CC6CCC(C6)C5)nc(OC[C@@]56CCCN5C[C@H](F)C6)nc4c3F)c12` [US20250034169, Compound 13], for which the 50% inhibitory concentration (IC50) in assay [1] came to 5.1 nM; in assay [2] it was 11.3 nM.

On to `C#Cc1c(F)ccc2cc(O)cc(-c3nc(C#CCC)c4c(N5CC6CCC(C6)C5)nc(OC[C@@]56CCCN5C[C@H](F)C6)nc4c3F)c12` [US20250034169, Compound 24], for which the IC50 in assay [1] came out at 13.6 nM; in assay [2], 15.1 nM.

Regarding `C#Cc1c(F)ccc2cc(O)cc(-c3nc(C#CCOC)c4c(N5CC6CCC(C6)C5)nc(OC[C@@]56CCCN5C[C@H](F)C6)nc4c3F)c12` [US20250034169, Compound 25], the half-inhibitory concentration (IC50) is 15 nM in assay [1] and 16.8 nM in assay [2].

As to `C#Cc1c(F)ccc2cc(O)cc(-c3nc(C#CC4CCCC4)c4c(N5CC6CCC(C6)C5)nc(OC[C@@]56CCCN5C[C@H](F)C6)nc4c3F)c12` [US20250034169, Compound 28], the IC50 in assay [1] came to 11.1 nM; in assay [2] it was 11.5 nM.

Turning to `C#Cc1c(F)ccc2cc(O)cc(-c3nc(C#CCC(C)C)c4c(N5CC6CCC(C6)C5)nc(OC[C@@]56CCCN5C[C@H](F)C6)nc4c3F)c12` [US20250034169, Compound 29], the IC50 in assay [1] worked out at 14.7 nM; in assay [2] it was 15.9 nM.

For the compound `C#Cc1c(F)ccc2cc(O)cc(-c3nc(C#CCCC(C)C)c4c(N5CC6CCC(C6)C5)nc(OC[C@@]56CCCN5C[C@H](F)C6)nc4c3F)c12` [US20250034169, Compound 30], the IC50 in assay [1] was 8.8 nM; in assay [2] it was 13.4 nM.

On to `C#Cc1c(F)ccc2cc(O)cc(-c3nc(C#CCCC#N)c4c(N5CC6CCC(C6)C5)nc(OC[C@@]56CCCN5C[C@H](F)C6)nc4c3F)c12` [US20250034169, Compound 31], for which the results for the IC50 in assay [1] and in assay [2] were 24.6 nM and 34.6 nM, respectively.

`C#Cc1c(F)ccc2cc(O)cc(-c3nc(C#C)c4c(N5CC6CC(C6)C5)nc(OC[C@@]56CCCN5C[C@H](F)C6)nc4c3F)c12` [US20250034169, Compound 41]: the IC50 stood at 22 nM in assay [1] and 31.4 nM in assay [2].

In the case of `C#Cc1c(F)ccc2cc(O)cc(-c3nc(C#C)c4c(N5CCC[C@@H](C)C5)nc(OC[C@@]56CCCN5C[C@H](F)C6)nc4c3F)c12` [US20250034169, Compound 43], the values for the IC50 in assay [1] and in assay [2] were 16.3 nM and 24.1 nM, respectively.

Consider `C#Cc1c(F)ccc2cc(O)cc(-c3nc(C#C)c4c(N5C[C@H]6CC[C@@H]5C6)nc(OC[C@@]56CCCN5C[C@H](F)C6)nc4c3F)c12` [US20250034169, Compound 44], for which the IC50 worked out at 15.2 nM in assay [1] and 29.6 nM in assay [2].

With `C#Cc1c(F)ccc2cc(O)cc(-c3nc(C#C)c4c(N5CC6CCC(C6)C5)nc(OC[C@]56CCCN5C[C@H](F)C6)nc4c3F)c12` [US20250034169, Compound 49], the IC50 in assay [1] is 6.9 nM; in assay [2], 15.7 nM.

`C#Cc1c(F)ccc2cc(O)cc(-c3nc(C#C)c4c(N5CC6CCC(C6)C5)nc(OC[C@H]5CCCN5C)nc4c3F)c12` [US20250034169, Compound 50]: the concentration for half-maximal inhibition (IC50) in assay [1] came out at 19.1 nM; in assay [2], 36.2 nM.

`C#Cc1c(F)ccc2cc(O)cc(-c3nc(C#C)c4c(N5CC6CCC(C6)C5)nc(OC[C@@H]5CCCN5C)nc4c3F)c12` [US20250034169, Compound 51]: the IC50 stood at 11.1 nM in assay [1] and 20.8 nM in assay [2].

In the case of `C#Cc1c(F)ccc2cc(O)cc(-c3nc(C#C)c4c(N5C6CCCC5CC6)nc(OCC5(CN(C)C)CC5)nc4c3F)c12` [US20250034169, Compound 52], the results for the 50% inhibitory concentration (IC50) in assay [1] and in assay [2] were 7.7 nM and 15.2 nM, respectively.

Take `C#Cc1c(F)ccc2cc(O)cc(-c3nc(C#C)c4c(N5C6CCCC5CC6)nc(OCC5(CN6CCCCC6)CC5)nc4c3F)c12` [US20250034169, Compound 53]: the IC50 in assay [1] is 4.3 nM; in assay [2] it was 14.6 nM.

Consider `C#Cc1c(F)ccc2cc(O)cc(-c3nc(C#C)c4c(N5CC6CCC(C6)C5)nc(OCCC(F)(F)F)nc4c3F)c12` [US20250034169, Compound 55], for which the IC50 stood at 9.8 nM in assay [1] and 14.8 nM in assay [2].

`C#Cc1c(F)ccc2cc(O)cc(-c3nc(C#C)c4c(N5CC6CCC(C6)C5)nc(OCC5CCCC5)nc4c3F)c12` [US20250034169, Compound 56]: the values for the IC50 in assay [1] and in assay [2] were 18.5 nM and 15.7 nM, respectively.

For the compound `C#Cc1nc(-c2cc(O)cc3ccc(F)c(CC)c23)c(F)c2nc(OC[C@@]34CCCN3C[C@H](F)C4)nc(N3CC4CCC(C4)C3)c12` [US20250034169, Compound 65], the IC50 in assay [1] was found to be 9.9 nM; in assay [2], 18.5 nM.
